Measurements: patent US20070037887A1, “Blockade of mtor to prevent a hormonal adaptive response” (University of Virginia Patent Foundation, priority 2003, published 2007)

Legend:
[1] = system: Shc; test: E2-induced Shc phosphorylation in MCF-7 cells; type: cell-based, human; conditions: 10^−10 M E2 for 3 minutes
Procedure: Because ERα, Shc and MAP kinase are all involved in E2 action in MCF-7 cells, upstream components responsible for Shc phosphorylation were determined by measuring the effects of PP2, ICI and PD98059 on E2-induced phosphorylation of Shc. In the presence of the inhibitors, MCF-7 cells were stimulated with vehicle or 10^−10 M E2 for 3 minutes and the status of Shc phosphorylation was examined. […] No effects of these inhibitors were apparent in the absence of E2 stimulation. […] Each of these inhibitors was capable of reducing the rate of cell proliferation in LTED cells.

[2] = system: LTED cells; test: Actin cytoskeleton (phalloidin staining) and ERα localization in LTED cells; type: cell-based, human; conditions: 10^−9 M
Text: It has been reported that cell mobility is controlled by a network of membrane initiated signals, such as activation of the Shc-Ras-MAPK pathway. Recently, it was reported that cell focal adhesions are highly dynamic structures. Cells can rapidly respond to the stimulation by growth factors and show reorganization of their cytoskeleton and cell shape. To examine E2 effects on reorganization of the actin cytoskeleton, the distribution of F-actin and also redistribution of the ERα localization in LTED and MCF-7 cells was determined by phalloidin staining. Untreated LTED cells expressed low actin polymerization and a few focal adhesion points. After E2 stimulation in contrast, the cytoskeleton underwent remodeling associated with formation of cellular ruffles, lamellipodias and leading edges, alterations of cell shape and loss of mature focal adhesion points. A subcellular redistribution of ERα to these dynamic membranes upon E2 stimulation represented another important feature of LTED cells. The ER antagonist ICI 182 780 at 10^−9 M blocked E2-induced ruffle formation as well as redistribution of ERα to the membrane with little effect by itself.

[3] = system: mTOR signaling; conditions: in cells; cited from earlier work
[4] = system: LTED cells; test: [3H] thymidine incorporation into DNA, LTED cells; type: cell-based, human; conditions: inhibitors of the MAP kinase pathway
Procedure: FIGS. 5A & 5B represent the effect of FTS on DNA synthesis in MCF-7 (FIG. 5A) and LTED (FIG. 5B) cells. One hundred thousand cells were plated into each well of 24-well plates. Two days later, the cells were re-fed with IMEM containing 5% DCC-FBS. After another two days, cells were treated in quadruplicate with the compounds indicated for 18 hours. [^3H] thymidine (1 μCi/well) was added during the last 2 h of incubation. [^3H] thymidine incorporated into DNA was normalized by protein content.
The inhibitory effect of FTS on cell growth may be the result of inhibition of cellular proliferation, induction of apoptosis, or both. To determine the mechanism by which FTS inhibits cell growth, FTS's effect on DNA synthesis and apoptosis was investigated. […] Estradiol (10^−10 M) increased [^3H] thymidine incorporation by 2.6 fold compared to the control level in MCF-7 cells.

[5] = system: MCF-7 cells; test: Estradiol dose response of growth, wild type MCF-7 cells; type: cell-based, human; conditions: PD 98059 co-administered with TGF alpha
Procedure: (§1) As further evidence of the role of MAP kinase, PD 98059 was administered to LTED cells and its effect on level of sensitivity to estradiol was examined.
(§2) To investigate whether the MAP and P13 kinase pathways have a role in estradiol induced cell proliferation, the following experiments were conducted. […] Blockade of this effect was obtained with the MAPK inhibitor PD98059. Administration of TGF at a dose of 10 ng/ml caused a 2-log shift to the left in the ability of estradiol to stimulate the growth of wild-type MCF-7 cells. […] Dual inhibition of PI3K with LY40029 and MAPK with U0126 shifted the level of sensitivity to estradiol more dramatically, by more than 2 logs to the right. On the basis of these observations, it is believed that adaptive hypersensitivity involves the joint activation of the PI3K and MAPK pathways.

[6] = system: LTED cells; test: Estradiol dose response of growth (hypersensitivity), LTED cells; type: cell-based, human; conditions: PD 98059 alone
Text: During the phase when tamoxifen first begins to stimulate tumor growth, removal of tamoxifen and administration of very low doses of estradiol stimulates tumor growth. In marked contrast, wild type tumors not exposed to tamoxifen long term are not stimulated by such low doses of estradiol. Taken together, these experiments indicate that either estradiol deprivation or blockade of estrogen action with antiestrogens enhances the level of sensitivity to estrogens or to the estrogenic properties of tamoxifen. This phenomenon of adaptive hypersensitivity is believed to be responsible for the superiority of aromatase inhibitors over tamoxifen in a variety of clinical settings.
as §1
as §2, with “On the basis of these observations, it is believed that adaptive hypersensitivity involves the joint activation of the PI3K and MAPK pathways.” left out

[7] = system: hormone dependent breast cancer; conditions: women responding initially to tamoxifen then relapsing, crossed over; cited from earlier work
[8] = system: mTOR-raptor complex; test: Coimmunoprecipitation of raptor with mTOR, compound added to cell extracts or immune complexes; type: binding; conditions: caffeine 1 mM, LY294002 10 μM, rapamycin 1 μM plus FKBP12 10 μM, wortmannin 1 μM
Procedure: 293T cells were transfected with pcDNA3 alone (Vec.) or with a combination of pcDNA3AU1-mTOR, pcDNA33HA-Raptor, and pcDNA33HA-mLST8. Extracts of the cells were incubated with increasing concentrations of FTS before AU1-mTOR was immunoprecipated. Samples of the immune complexes were incubated with [γ-^32P]ATP and recombinant [His^6]PHAS-I, then subjected to SDS-PAGE and transferred to an immobilon membrane. After obtaining a phosphorimage of the membrane to detect ^32P-PHAS-I, the membrane was immunoblotted with PThr^36/45 antibodies. Other samples of the immune complexes were subjected to SDS-PAGE and immunoblots were prepared with antibodies to the HA epitope or to mTOR (see FIG. 13A). Extracts of nontransfected 293T cells were incubated with increasing concentrations of FTS before mTOR was immunoprecipated with mTAb1. A control immunoprecipitation was conducted using nonimmune IgG (NI). Immune complexes were subjected to SDS-PAGE and immunoblots were prepared with antibodies to mLST8, mTOR, and raptor.
Samples of extracts from 293T cells overexpressing AU1-mTOR, HA-raptor, and HA-mLST8 were incubated for 1 h with increasing concentrations of FTS (●, ▴, ▪) or GTS (∘, Δ, □) before immunoprecipitations were conducted with anti-AU1 antibodies. mTOR kinase activity (●, ∘) was determined by measuring ^32P incorporation into [His^6]PHAS-I in immune complex kinases assays performed with [γ-^32P]ATP (see FIG. 14A). The relative amounts of HA-raptor (▴, Δ) and HA-mLST8 (▪, □) that coimmunoprecipitated with AU1-mTOR were determined after immunoblotting with anti-HA antibodies (see FIG. 14B). The results (mean values+S.E. from 5 experiments) are expressed as percentages of the mTOR activity (FIG. 14A) or coimmunoprecipitating proteins (FIG. 14B) from samples incubated without FTS or GTS, and have been corrected for the amounts of AU1-mTOR immunoprecipitated.
293T cells were transfected with pcDNA3 alone (Vec.) or with a combination of pcDNA3AU1-mTOR, pcDNA33HARaptor, and pcDNA33HA-mLST8. AU1-mTOR was immunoprecipitated and samples of the washed immune complexes were at incubated […] for 30 min with no inhibitors or with the following: caffeine (1 mM), FTS (50 μM), LY294002 (10 μM), rapamycin (1 μM) plus FKBP12 (10 μM), and 1 μM wortmannin. To prevent destruction of wortmannin, incubations were conducted in the absence of thiol reducing agents. Samples of the immune complexes were incubated for 10 min with 10 mM MnCl2, 1 mM [γ-^32P]ATP, and 50 μg/ml [His^6]PHAS-I to assess mTOR activity. Other samples were rinsed twice, subjected to SDS-PAGE, and immunoblotted with anti-HA and anti-AU1 antibodies to determine the amounts of HA-raptor and HA-mLST8 associated with AU1-mTOR. The relative amounts of ^32P incorporated into PHAS-I were determined by phosphorimaging (see FIG. 15B).

[9] = system: MAP kinase; test: MAP kinase activation in LTED cells; type: cell-based, human
Procedure: Upregulation of MAP kinase and PI-3-kinase could reflect either a constitutive activation of growth factor receptors, an increase in the endogenous secretion of growth factors, or other mechanisms. Inhibition of MAP kinase with a pure antiestrogen would rule out the possibility of constitutive activation of growth factor receptors or growth factor secretion. Accordingly, the pure anti-estrogen, faslodex (fulvestrant) was administered and the level of activation of MAP kinase in LTED cells was examined.
Estrogen deprivation might trigger activation of a non-genomic, estrogen regulated, MAP kinase pathway which utilizes Shc. […] The addition of E2 stimulated MAP kinase phosphorylation in LTED cells within minutes. The increased MAP kinase phosphorylation by E2 was time and dose-dependent being greatly stimulated at 15 min and remaining elevated for at least 30 min. Maximal stimulation of MAP kinase phosphorylation was at 10^−10 M of E2.

[10] = system: Shc; test: Shc tyrosine phosphorylation in LTED cells; type: cell-based, human; conditions: at 3 min and 15 min respectively
Procedure: Shc proteins are known to couple tyrosine kinase receptors to the MAPK pathway and activation of Shc involves the phosphorylation of SHC itself. To investigate if the Shc pathway was involved in the rapid action of estradiol in LTED cells, tyrosine phosphorylated proteins were immuno-precipitated and tested for the presence of Shc under E2 treatment. E2 rapidly stimulated Shc tyrosine phosphorylation in a dose and time dependent fashion with a peak at 3 minutes. The pure estrogen receptor antagonist, fulvestrant, blocked E2-induced Shc and MAPK phosphorylation at 3 min and 15 min respectively.

With `C[C@]12CC[C@@H]3c4ccc(O)cc4C[C@@H](CCCCCCCCC[S+]([O-])CCCC(F)(F)C(F)(F)F)[C@H]3[C@@H]1CC[C@@H]2O` (stereo partly drawn) [ICI 182 780] as the molecule, how does the “E2-induced Shc phosphorylation” value [1] read?
The value was “effectively inhibited”.

What about the “E2-induced ruffle formation and redistribution of ERα to the membrane” value [2] of the same molecule?
Its value is “blocked”.

Which “time in which inhibition of mTOR signaling occurs” value [3] does the source give for `CC[C@H](C)[C@@H](CO[C@@H](Cc1ccccc1)C(=O)N[C@@H](CCS(C)(=O)=O)C(=O)OC(C)C)NC[C@@H](N)CS` [L-744,832] here?
Its value is ≤ 1.5 h.

What does the source list for `COc1cccc(-c2cc(=O)c3ccccc3o2)c1N` [PD98059]?
incorporation of tritiated thymidine into DNA [4]: block the incorporation; TGF alpha induced left shift in estradiol dose response [5]: returned to baseline; TGF alpha induced left shift in estradiol dose response ([5]; listed as PD 98059): returned back to baseline; shift to the right of estradiol dose response curves [6]: approximately one-half log; E2-induced Shc phosphorylation [1]: did not influence

Which “women with secondary clinical benefit” value [7] does the source give for `CCC1(c2ccc(N)cc2)CCC(=O)NC1=O` (stereo not drawn) [aminoglutethimide] here?
Its value is 50%.

For `Cn1c(=O)c2c(ncn2C)n(C)c1=O` [caffeine, reference compound], which “decrease of the association of AU1-mTOR and HA-raptor” value [8] is on record?
The value was “little, if any, effect”.

With `C[C@]12CC[C@@H]3c4ccc(O)cc4C[C@@H](CCCCCCCCC[S+]([O-])CCCC(F)(F)C(F)(F)F)[C@H]3[C@@H]1CC[C@@H]2O` (stereo partly drawn) [fulvestrant] as the molecule, how does the “level of activated MAP kinase” value [9] read?
The value was “returned the level of activated MAP kinase back to the level seen in wild type MCF-7 cells”.

What about the “E2-induced Shc and MAPK phosphorylation” value [10] of the same molecule?
Its value is “blocked”.
